How the values were obtained:
[1] = target: T1, porcine leukocyte 12/15-lipoxygenase (Sus scrofa, UniProt P16469); assay: 12/15-Lipoxygenase enzyme assay; type: biochemical; conditions: 70 μM arachidonic acid, pH 7.4, 10 minute incubation; read-out: IC50, inhibition of 12/15-Lipoxygenase
T1 construct: purchased Cayman 60300
T1 sequence (P16469 1-663): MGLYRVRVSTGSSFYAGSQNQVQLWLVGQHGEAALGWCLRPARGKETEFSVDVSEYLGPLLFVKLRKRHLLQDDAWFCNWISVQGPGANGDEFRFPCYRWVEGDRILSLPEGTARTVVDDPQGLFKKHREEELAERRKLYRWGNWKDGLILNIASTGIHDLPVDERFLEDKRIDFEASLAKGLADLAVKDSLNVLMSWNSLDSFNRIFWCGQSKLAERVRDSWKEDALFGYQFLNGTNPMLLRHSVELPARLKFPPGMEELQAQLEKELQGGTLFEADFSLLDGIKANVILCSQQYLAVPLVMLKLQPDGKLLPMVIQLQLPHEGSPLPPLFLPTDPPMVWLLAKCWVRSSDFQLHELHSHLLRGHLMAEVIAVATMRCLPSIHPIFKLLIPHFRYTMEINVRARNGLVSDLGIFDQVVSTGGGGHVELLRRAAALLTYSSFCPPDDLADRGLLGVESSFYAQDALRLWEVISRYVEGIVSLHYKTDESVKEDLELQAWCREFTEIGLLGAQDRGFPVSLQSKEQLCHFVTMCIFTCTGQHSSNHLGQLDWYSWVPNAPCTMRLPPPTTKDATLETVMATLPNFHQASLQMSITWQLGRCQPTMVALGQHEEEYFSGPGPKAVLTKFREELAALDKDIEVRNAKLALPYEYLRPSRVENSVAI
Source text: (§1) In vitro evaluation of the ability of a composition to inhibit the enzymes 5-lipoxygenase, 15-lipoxygenase, or 12/15 lipoxygenase as described in Walidge, N. B. et al Anal. Biochem., 231: 354-358 (1995) using a high throughput colorimetric method; as well as in vitro evaluation of inhibiting LTB4 is described in Examples.
This procedure was used for measuring the enzymatic activity of porcine leukocyte 12/15-lipoxygenase using a colorimetric method based on the ferric oxidation of xylenol orange.
(§2) • 96 well flat bottom microfilter plates (VWR, Catalog #62402-933 9295) • Lipoxygenase screening assay buffer (Cayman, Catalog #760710) • Porcine leukocyte 12/15-lipoxygenase (Cayman, Catalog #60300) • Arachidonic Acid (Sigma, Catalog #A3555) • Xylenol orange tetrasodium salt (Aldrich, Catalog #227854) • Iron (II) sulfate heptahydrate (Sigma, Catalog #F7002) • Sulfuric acid (95-98%) [18M] • Methanol Procedure
(§3) Porcine Leukocyte 12/15-lipoxygenase (Cayman Cat #60300) was used in this assay. Test compound and/or vehicle was added to 1.3 U 12/15-lipoxygenase in 50 mM Tris-HCl buffer, pH 7.4. The reaction was initiated by addition of 70 μM arachidonic acid in Tris-HCl buffer, pH 7.4, and terminated after a 10 minute incubation at room temperature by addition of FOX reagent (25 mM sulphuric acid, 100 μM xylenol orange, 100 μM iron (II) sulphate, methanol:water 9:1). The yellow color of acidified xylenol orange was converted to a blue color by the lipid hydroperoxide-mediated oxidation of Fe 2+ ions and the interaction of the resulting Fe 3+ ions with the dye. The complex was allowed to form during a 1 hour incubation at room temperature with shaking. Absorbance of the Fe 3+ complex was then measured at […] using a spectrophotometer.
(§4) Negative controls contained enzyme during the incubation step but substrate was not added until after the FOX reagent.
Compounds are screened at 5 concentrations in triplicate starting at 10 μM

[2] = tested on: release of the leukotriene LTB4 from MPRO cell line; assay: LTB4 assay (competitive ELISA); type: cell-based; conditions: Mus musculus; 1 μM calcium ionophore A23187, 1 hour; read-out: EC50, inhibition of LTB4 production
Source text: This procedure was used for measuring the release of the leukotriene LTB4 from a neutrophil cell line using a competitive ELISA technique.
• MPRO cell line (ATCC, Catalog #CRL-11422) • Calciumionophore (A23187) (Sigma, Catalog #C7522) • Nordihydroguaiaretic acid (NDGA) (BioMol, Catalog #E1101-0001) • Retinoic Acid (all-trans) (ATRA) (Sigma, Catalog #95152) • Sterile, tissue-culture treated 96-well plates (Corning, Catalog #3614) Materials for LTB4 ELISA • Precoated (Mouse Anti-Rabbit IgG) EIA 96 Well Strip Plates (Cayman, Catalog #400004) • Leukotriene B4 AChE Tracer (Cayman Catalog #420110) • Leukotriene B4 EIA Antiserum (Cayman Catalog #420112) • Ellman's Reagent (Cayman Catalog #400050) • EIA Buffer Concentrate (10×) (Cayman Catalog #400060) • Wash Buffer Concentrate (400×) (Cayman Catalog #400062) • Plastic plate covers (Cayman Catalog #400012) Procedure
A mouse promyelocytic cell line (MPRO) was used in this assay. These cells are committed immature neutrophils that can be differentiated into mature neutrophils by treatment with 10 μM all-trans retinoic acid for 72 hours
Following 72 hours of differentiation, cells were stimulated with 1 μM of a calcium ionophore (A23187) in the presence or absence of test compound or vehicle for 1 hour at 370 C. After this time, supernatant was removed from the cells and the LTB4 levels were determined following manufacturer's instructions, using a Leukotriene B4 EIA kit from Cayman (Cat #520111)
The negative controls were media samples from differentiated but unstimulated cells.
The compounds were screened at 5 concentrations in quadruplicate starting at 10 μM

[3] = tested on: dopaminergic neuronal cell line; assay: High glutamate-induced oxidative stress assay (HGOS); type: cell-based; conditions: Mus musculus; 30 mM glutamate, 16 hrs; read-out: EC50, protection against HGOS cell injury and cell death
Source text: Protection against redox stress can be evaluated in cell culture using high glutamate induced oxidative stress (HGOS) in mouse dopaminergic cell lines. The cytotoxic effect of glutamate is not due to excitotoxicity, as this cell line is devoid of inotropic glutamate receptors. Rather, the glutamate-induced toxicity of dopaminergic cells is associated with an inhibition of cystine transport which subsequently leads to depletion of intracellular glutathione (GSH) levels (Murphy T. H., et al. Neuron 2, 1547-1558, 1989), activation of neuronal 12-lipoxygenase (Li, Y. et al., Neuron 19, 453-463, 1997), increased ROS production (Tan S. et al., J. Cell Biol. 141, 1423-1432, 1998) and elevated intracellular Cat^2+ (Li, Y. et al., see supra). Some molecules were measured for their ability to protect cells against glutamate-induced stress and the assay is detailed in Examples.
This procedure was used to induce high glutamate-induced oxidative stress (HGOS) in a dopaminergic neuronal cell line. Using this assay the potency and efficacy of test articles against HGOS neuronal cell injury and cell death was established in a high throughput manner.
• Dopaminergic neuronal cell lines • DMEM-No Glucose (Life Technologies Cat #11966-025) • L-glutamine (Life Technologies Cat #25030-081) • L-glutamic acid, monosodium salt (Sigma Cat #G5889) • D-glucose (Sigma Cat #G-6151) • 10×HBSS buffer (pH 7.4) (950 ml Pyrogen-free water, 2.44 g/L MgCl2.6H20, 3.73 g/L KCl, 59.58 g/L Hepes, 58.44 g/L NaCl, 1.36 g/L KH2PO4, 1.91 g/L CaCl2.2H2O and pH to […] with HCl) • Cell Tracker Green fluorescent dye (Molecular Probes, Cat #2925). Prepare a 5NM solution in pre-warmed HBSS just prior to use. • Sterile 96-well plates precoated with poly-D-lysine (Corning Catalog #3665) • 96-well deep well mother plate, DyNA Block 1000 (VWR Catalog #40002-008) Neuronal Cells
The cells were seeded into 96-well plates at a density of 2000 per well and left to grow for 72 hours in a 33° C. incubator with 5% CO2 in air atmosphere. The passage number of the cells for each assay experiment were no later than p11 in order to minimize experimental variation.
All compounds were dissolved in DMEM-No Glu containing 1 mM glucose, 30 mM glutamate and 1× Pen/Strep. DMEM-No Glu with 1 mM glucose and 1× P/S was used as the negative control, DMEM-No Glucose with 1 mM glucose, […] glutamate was used as a positive control and 100 NM Glutathione was added to the positive control as a standard. All of the procedures for this involving the making and dilution of compounds were performed using aseptic conditions and with minimal light.
The plates were removed from the incubator and examined under the microscope for morphological appearance and density. Using an aseptic technique and an 8-channel aspirator the media was carefully removed from the cells and replaced with 200 μI of 1×HBSS. This was done as quickly as possible to prevent the cells drying out. The plates were then placed in the humidified 37° C. incubators of the Biomek 2000 Side Loader. Four plates were washed at a time so as to minimize the time that the cells were sitting in 1×HBSS prior to addition of the compound test solution. Experimental Setup
The Beckman Biomek workstations were used to load the compounds and controls from the mother plates onto the cell plates that were prewashed with HBSS under sterile conditions. The plates were incubated in the upper HTS incubator at 37° C. in 5% CO2 for exactly 16 hrs. The following day, using the Beckman Biomek workstations, the plates were removed from the incubator. Using Cell Tracker Addition, the compounds were removed from the plates, washed once with […] of pre-warmed 1×HBSS and then 100 μL of 5 μM Cell Tracker Green was added to each well. The plates were incubated at 37° C. for 30 min to allow the dye to enter the cell and be cleaved by the esterases. […]

[4] = target: T2, human recombinant 5-lipoxygenase (Homo sapiens, UniProt P09917); assay: 5-Lipoxygenase enzyme assay; type: biochemical; conditions: 70 μM arachidonic acid, pH 7.4, 10 minute incubation; read-out: IC50, inhibition of 5-Lipoxygenase
T2 construct: purchased Cayman 60402
T2 sequence (P09917 1-674): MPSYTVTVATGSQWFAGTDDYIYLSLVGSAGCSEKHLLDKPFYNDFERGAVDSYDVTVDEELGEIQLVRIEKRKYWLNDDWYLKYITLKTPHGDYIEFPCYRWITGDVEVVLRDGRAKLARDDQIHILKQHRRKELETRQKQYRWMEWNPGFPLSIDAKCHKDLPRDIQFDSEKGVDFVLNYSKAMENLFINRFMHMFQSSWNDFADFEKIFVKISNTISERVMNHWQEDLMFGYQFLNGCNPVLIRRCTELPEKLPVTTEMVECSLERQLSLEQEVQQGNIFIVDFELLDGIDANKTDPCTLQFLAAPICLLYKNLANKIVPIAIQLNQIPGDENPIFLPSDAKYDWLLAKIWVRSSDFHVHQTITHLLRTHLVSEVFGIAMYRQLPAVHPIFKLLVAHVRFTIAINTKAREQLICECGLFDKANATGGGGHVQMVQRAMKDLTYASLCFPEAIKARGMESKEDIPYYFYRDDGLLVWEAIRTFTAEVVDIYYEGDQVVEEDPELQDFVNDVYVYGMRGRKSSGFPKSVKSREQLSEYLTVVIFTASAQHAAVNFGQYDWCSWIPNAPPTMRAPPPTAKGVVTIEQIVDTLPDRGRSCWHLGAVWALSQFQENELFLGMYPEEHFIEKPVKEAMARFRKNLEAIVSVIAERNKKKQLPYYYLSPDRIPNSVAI
Source text: as §1
This procedure was used for measuring the enzymatic activity of human recombinant 5-lipoxygenase using a colorimetric method based on the ferric oxidation of xylenol orange.
as §2, with “Human recombinant 5-lipoxygenase” for “Porcine leukocyte 12/15-lipoxygenase”, “#60402)” for “#60300)”, “[18M]—Methanol” for “[18M] • Methanol”
as §3, with “Human recombinant 5-lipoxygenase” for “Porcine Leukocyte 12/15-lipoxygenase”, “#60402)” for “#60300)”, “The test” for “Test”, “0.51-1 5-lipoxygenase” for “1.3 U 12/15-lipoxygenase”
as §4
Compounds were screened at 5 concentrations in triplicate starting at 10 μM

Row | Compound | IC50 [1] | EC50 [2] | further results
1 | Cc1cc2c(c(C)c1O)CCC(CCCCl)(c1cccs1)O2 (centres unmarked) [2-(3-Chloro-propyl)-5,7-dimethyl-2-thiophen-2-yl-chroman-6-ol] | < 1000 nM | – | –
2 | CC(=CCc1c(O)c(C)c(C)c2c1CCC(C)(C)O2)CCCl [5-(5-Chloro-3-methyl-pent-2-enyl)-2,2,7,8-tetramethyl-chroman-6-ol] | < 1000 nM | – | –
3 | Cc1c(C)c2c(c(-c3ccc(C(=O)O)cc3)c1O)CCC(C)(C)O2 [4-(6-Hydroxy-2,2,7,8-tetramethyl-chroman-5-yl)-benzoic acid] | – | < 1000 nM | EC50 [3]: < 5000 nM
4 | Cc1c(C)c2c(c(Cl)c1O)CCC(C)(c1cccs1)O2 (centres unmarked) [5-Chloro-2,7,8-trimethyl-2-thiophen-2-yl-chroman-6-ol] | < 1000 nM | – | –
5 | Cc1c(C)c2c(c(-c3cccc([N+](=O)[O-])c3)c1O)CCC(C)(C)O2 [2,2,7,8-Tetramethyl-5-(3-nitro-phenyl)-chroman-6-ol] | – | < 1000 nM | –
6 | Cc1cc(C2(C)CCc3c(C)c(O)c(C)c(Cl)c3O2)c(C)s1 (centres unmarked) [8-Chloro-2-(2,5-dimethyl-thiophen-3-yl)-2,5,7-trimethyl-chroman-6-ol] | < 1000 nM | – | –
7 | Cc1c(C)c2c(c(C)c1O)CCC(C)(C=C(Cl)Cl)O2 (centres unmarked) [2-(2,2-Dichloro-vinyl)-2,5,7,8-tetramethyl-chroman-6-ol] | < 1000 nM | – | IC50 [4]: < 1000 nM
8 | Cc1c(C)c2c(c(-c3cccnc3)c1O)CCC(C)(C)O2 [2,2,7,8-Tetramethyl-5-pyridin-3-yl-chroman-6-ol] | – | < 1000 nM | EC50 [3]: < 5000 nM

From patent US8791155B2, “Chroman derivatives” (Edison Pharmaceuticals, Inc., priority 2003, dated 2014)
